Source: patent publication US12240838B2, “Inhibiting agents for Bruton's tyrosine kinase” (BIOGEN MA INC., priority 2019, dated 2025)
pIC50: −log10 of the molar value.

How the values were obtained:
BTK [1] = molecular target: T1, BTK (Homo sapiens (Human), UniProt Q06187); assay: In Vitro PD Assay in Human Whole Blood (pBTK assay); format: cell-based; conditions: 37° C. for 30 min, 50% inhibition of ECL signal
Experimental: Human heparinized venous blood was purchased from Bioreclamation, Inc. or SeraCare Life Sciences and shipped overnight. Whole blood was aliquoted into 96-well plate and “spiked” with serial dilutions of test compound in DMSO or with DMSO without drug. The final concentration of DMSO in all wells was 0.1%. The plate was incubated at 37° C. for 30 min. Lysis buffer containing protease and phosphatase inhibitors was added to the drug-containing samples and one of the DMSO-only samples (+PPi, high control), while lysis buffer containing protease inhibitors was added to the other DMSO-only samples (−PPi, low control). All of the lysed whole blood samples were subjected to the total BTK capture and phosphotyrosine detection method described in US20160311802, incorporated herein by reference.

BTK [2] = molecular target: T1, BTK; assay: In Vitro BTK Kinase Assay: BTK-POLYGAT-LS ASSAY; format: biochemical; conditions: ATP 10 μM, polyGAT 100 nM, BTK 0.25 nM, 30 minutes
Experimental: The purpose of the BTK in vitro assay is to determine compound potency against BTK through the measurement of IC50. […] The BTK kinase reaction was done in a black 96 well plate (costar 3694). For a typical assay, a 24 μL aliquot of a ATP/peptide master mix (final concentration; ATP 10 μM, polyGAT 100 nM) in kinase buffer (10 mM Tris-HCl pH 7.5, 10 mM MgCl2, 200 μM […], 5 mM DTT, 0.01% Triton X-100, and 0.2 mg/ml casein) is added to each well. Next, […] of a 4-fold, 40× compound titration in 100% DMSO solvent is added, followed by adding 15 μL of BTK enzyme mix in 1× kinase buffer (with a final concentration of 0.25 nM). The assay is incubated for 30 minutes before being stopped with […] of a 50 mM EDTA solution. Aliquots (5 μL) of the kinase reaction are transferred to a low volume white 384 well plate (Coming 3674), and […] of a 2× detection buffer (Invitrogen PV3574, with 4 nM Tb-PY20 antibody, Invitrogen PV3552) is added. The plate is covered and incubated for 45 minutes at room temperature. Time resolved fluorescence (TRF) on Molecular Devices M5 (332 nm excitation; 488 nm emission; 518 nm fluorescein emission) is measured.

T1 sequence (Q06187 whole entry): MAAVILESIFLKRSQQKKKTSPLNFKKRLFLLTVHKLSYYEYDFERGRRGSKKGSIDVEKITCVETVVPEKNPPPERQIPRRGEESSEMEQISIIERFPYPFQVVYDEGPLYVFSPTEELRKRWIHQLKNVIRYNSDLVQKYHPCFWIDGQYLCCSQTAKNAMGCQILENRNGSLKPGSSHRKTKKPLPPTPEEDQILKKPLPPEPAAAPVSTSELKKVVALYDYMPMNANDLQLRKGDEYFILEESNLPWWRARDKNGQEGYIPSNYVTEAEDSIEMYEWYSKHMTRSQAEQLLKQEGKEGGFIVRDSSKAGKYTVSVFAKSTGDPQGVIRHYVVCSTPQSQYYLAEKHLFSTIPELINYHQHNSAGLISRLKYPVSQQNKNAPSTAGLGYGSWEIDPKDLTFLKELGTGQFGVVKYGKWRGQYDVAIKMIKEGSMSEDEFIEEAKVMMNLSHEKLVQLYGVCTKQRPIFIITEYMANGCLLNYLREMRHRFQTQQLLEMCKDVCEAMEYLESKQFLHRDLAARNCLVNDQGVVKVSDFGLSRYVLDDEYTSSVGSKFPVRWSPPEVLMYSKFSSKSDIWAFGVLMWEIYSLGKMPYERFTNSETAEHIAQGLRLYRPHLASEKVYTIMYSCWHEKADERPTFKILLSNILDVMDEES

Compound	pIC50 (BTK [1])	pIC50 (BTK [2])
CC(C)(C)c1noc(C(=O)NCc2ccc(-c3ccnc(NC(=O)C4CC4)c3)c(F)c2Cl)n1 [Compound 15, 3-(tert-butyl)-N-(2-chloro-4-(2-(cyclopropanecarboxamido)pyridin-4-yl)-3-fluorobenzyl)-1,2,4-oxadiazole-5-carboxamide]	≥ 7.00	≥ 9.00
CC(C)(C)c1nc(C(=O)NCc2ccc(-c3ccnc(NC(=O)C4CC4)c3)cc2C(F)(F)F)no1 [Compound 16, 5-(tert-butyl)-N-(4-(2-(cyclopropanecarboxamido)pyridin-4-yl)-2-(trifluoromethyl)benzyl)-1,2,4-oxadiazole-3-carboxamide]	6.30 to 7.00	≥ 9.00
CC(C)(C)c1noc(C(=O)NCc2ccc(-c3ccnc(NC(=O)C4CC4)c3)cc2C(F)(F)F)n1 [Compound 17, 3-(tert-butyl)-N-(4-(2-(cyclopropanecarboxamido)pyridin-4-yl)-2-(trifluoromethyl)benzyl)-1,2,4-oxadiazole-5-carboxamide]	≥ 7.00	≥ 9.00
CC(C)(C)c1noc(C(=O)N[C@@H]2CCCCc3cc(-c4ccnc(NC(=O)C5CC5)c4)ccc32)n1 [Compound 18, (R)-3-(tert-butyl)-N-(2-(2-(cyclopropanecarboxamido)pyridin-4-yl)-6,7,8,9-tetrahydro-5H-benzo[7]annulen-5-yl)-1,2,4-oxadiazole-5-carboxamide]	≥ 7.00	≥ 9.00
Cc1cc(-c2ccnc(NC(=O)C3CC3)c2)ccc1[C@@H](C)NC(=O)c1noc(C(C)(C)C)n1 [Compound 19, (R)-5-(tert-butyl)-N-(1-(4-(2-(cyclopropanecarboxamido)pyridin-4-yl)-2-methylphenyl)ethyl)-1,2,4-oxadiazole-3-carboxamide]	≥ 7.00	≥ 9.00
Cc1cc(-c2cc(NC(=O)C3CC3)ncc2F)ccc1[C@@H](C)NC(=O)c1noc(C(C)(C)C)n1 [Compound 20, (R)-5-(tert-butyl)-N-(1-(4-(2-(cyclopropanecarboxamido)-5-fluoropyridin-4-yl)-2-methylphenyl)ethyl)-1,2,4-oxadiazole-3-carboxamide]	≥ 7.00	≥ 9.00
C[C@@H](NC(=O)c1noc(C(C)(C)C)n1)c1ccc(-c2ccnc(NC(=O)C3CC3)c2)cc1Cl [Compound 21, (R)-5-(tert-butyl)-N-(1-(2-chloro-4-(2-(cyclopropanecarboxamido)pyridin-4-yl)phenyl)ethyl)-1,2,4-oxadiazole-3-carboxamide]	≥ 7.00	≥ 9.00
C[C@@H](NC(=O)c1noc(C(C)(C)C)n1)c1ccc(-c2cc(NC(=O)C3CC3)ncc2F)cc1Cl [Compound 22, (R)-5-(tert-butyl)-N-(1-(2-chloro-4-(2-(cyclopropanecarboxamido)-5-fluoropyridin-4-yl)phenyl)ethyl)-1,2,4-oxadiazole-3-carboxamide]	6.30 to 7.00	≥ 9.00
Cc1cc(-c2cc(NC(=O)C3CC3)ncc2C(F)(F)F)ccc1CNC(=O)c1noc(C(C)(C)C)n1 [Compound 26, 5-(tert-butyl)-N-(4-(2-(cyclopropanecarboxamido)-5-(trifluoromethyl)pyridin-4-yl)-2-methylbenzyl)-1,2,4-oxadiazole-3-carboxamide]	< 5.00	8.00 to 9.00
CC(C)(C)n1cc(F)c(C(=O)NCc2ccc(-c3ccnc(NC(=O)C4CC4)c3)c(F)c2C2CC2)n1 [Compound 29, 1-(tert-butyl)-N-(4-(2-(cyclopropanecarboxamido)pyridin-4-yl)-2-cyclopropyl-3-fluorobenzyl)-4-fluoro-1H-pyrazole-3-carboxamide]	5.00 to 6.30	8.00 to 9.00
CC(C)(C)c1ncc(C(=O)NCc2ccc(-c3ccnc(NC(=O)C4CC4)c3)c(F)c2C2CC2)o1 [Compound 30, 2-(tert-butyl)-N-(4-(2-(cyclopropanecarboxamido)pyridin-4-yl)-2-cyclopropyl-3-fluorobenzyl)oxazole-5-carboxamide]	< 5.00	8.00 to 9.00
Cc1c(CNC(=O)c2nn(C(C)(C)C)cc2F)ccc(-c2ccnc(NC(=O)C3CC3)c2)c1F [Compound 31, 1-(tert-butyl)-N-(4-(2-(cyclopropanecarboxamido)pyridin-4-yl)-3-fluoro-2-methylbenzyl)-4-fluoro-1H-pyrazole-3-carboxamide]	5.00 to 6.30	≥ 9.00
Cc1c(CNC(=O)c2cnc(C(C)(C)C)o2)ccc(-c2ccnc(NC(=O)C3CC3)c2)c1F [Compound 32, 2-(tert-butyl)-N-(4-(2-(cyclopropanecarboxamido)pyridin-4-yl)-3-fluoro-2-methylbenzyl)oxazole-5-carboxamide]	5.00 to 6.30	≥ 9.00
CC(C)(C)c1nc(C(=O)NCc2ccc(-c3ccnc(NC(=O)C4CC4)c3)c(F)c2C2CC2)no1 [Compound 33, 5-(tert-butyl)-N-(4-(2-(cyclopropanecarboxamido)pyridin-4-yl)-2-cyclopropyl-3-fluorobenzyl)-1,2,4-oxadiazole-3-carboxamide]	5.00 to 6.30	≥ 9.00
CC(C)(C)c1noc(C(=O)NCc2ccc(-c3ccnc(NC(=O)C4CC4)c3)c(F)c2C2CC2)n1 [Compound 34, 3-(tert-butyl)-N-(4-(2-(cyclopropanecarboxamido)pyridin-4-yl)-2-cyclopropyl-3-fluorobenzyl)-1,2,4-oxadiazole-5-carboxamide]	5.00 to 6.30	≥ 9.00
Cc1cc(-c2ccnc(NC(=O)C3CC3)c2)ccc1CNC(=O)c1noc(C(C)(C)CO)n1 [Compound 35, N-(4-(2-(cyclopropanecarboxamido)pyridin-4-yl)-2-methylbenzyl)-5-(1-hydroxy-2-methylpropan-2-yl)-1,2,4-oxadiazole-3-carboxamide]	5.00 to 6.30	8.00 to 9.00
Cc1cc(-c2ccnc(NC(=O)C3CC34CCC4)c2)ccc1CNC(=O)c1noc(C(C)(C)C)n1 (stereo not drawn) [Compound 36]	< 5.00	8.00 to 9.00
Cc1cc(-c2ccnc(NC(=O)[C@H]3C[C@@H]3F)c2)ccc1CNC(=O)c1noc(C(C)(C)C)n1 [Compound 37, 5-(tert-butyl)-N-(4-(2-((1R,2S)-2-fluorocyclopropane-1-carboxamido)pyridin-4-yl)-2-methylbenzyl)-1,2,4-oxadiazole-3-carboxamide]	5.00 to 6.30	≥ 9.00
Cc1cc(-c2ccnc(NC(=O)[C@@H]3C[C@H]3F)c2)ccc1CNC(=O)c1noc(C(C)(C)C)n1 [Compound 38, 5-(tert-butyl)-N-(4-(2-((1S,2R)-2-fluorocyclopropane-1-carboxamido)pyridin-4-yl)-2-methylbenzyl)-1,2,4-oxadiazole-3-carboxamide]	5.00 to 6.30	≥ 9.00
Cc1cc(-c2ccnc(NC(=O)C3CC3)c2)ccc1CNC(=O)c1nc(C(C)(C)CF)no1 [Compound 39, N-(4-(2-(cyclopropanecarboxamido)pyridin-4-yl)-2-methylbenzyl)-3-(1-fluoro-2-methylpropan-2-yl)-1,2,4-oxadiazole-5-carboxamide]	6.30 to 7.00	≥ 9.00
Cc1cc(-c2ccnc(NC(=O)C3CC3)c2)ccc1CNC(=O)c1noc(C(C)(C)CF)n1 [Compound 41, N-(4-(2-(cyclopropanecarboxamido)pyridin-4-yl)-2-methylbenzyl)-5-(1-fluoro-2-methylpropan-2-yl)-1,2,4-oxadiazole-3-carboxamide]	5.00 to 6.30	≥ 9.00
CC(C)(C)c1noc(C(=O)N[C@@H]2CCCCc3cc(-c4ccnc(NC(=O)[C@@H]5CC56CCC6)c4)ccc32)n1 [Compound 42, 3-(tert-butyl)-N-((R)-2-(2-((R)-spiro[2.3]hexane-1-carboxamido)pyridin-4-yl)-6,7,8,9-tetrahydro-5H-benzo[7]annulen-5-yl)-1,2,4-oxadiazole-5-carboxamide]	5.00 to 6.30	≥ 9.00
Cc1cc(-c2ccnc(NC(=O)C3CC3)c2F)ccc1CNC(=O)c1noc(C(C)(C)C)n1 [Compound 44, 5-(tert-butyl)-N-(4-(2-(cyclopropanecarboxamido)-3-fluoropyridin-4-yl)-2-methylbenzyl)-1,2,4-oxadiazole-3-carboxamide]	5.00 to 6.30	8.00 to 9.00
CC(C)(C)c1noc(C(=O)N[C@@H]2CCCCc3cc(-c4ccnc(NC(=O)[C@@H]5CC5(C)C)c4)ccc32)n1 [Compound 45, 3-(tert-butyl)-N-((R)-2-(2-((R)-2,2-dimethylcyclopropane-1-carboxamido)pyridin-4-yl)-6,7,8,9-tetrahydro-5H-benzo[7]annulen-5-yl)-1,2,4-oxadiazole-5-carboxamide]	< 5.00	8.00 to 9.00
